Earlier results in article PMC2923042 (Journal of chemical information and modeling, 2008).

Tested on: catL
Settings: extrapolated from 63% inhibition at 10^-7 M; ref Tsuge et al.[15]

Question: With `CN(C)C(=O)[C@H](Cc1ccccc1)NC(=O)[C@H]1O[C@@H]1C(=O)NCCc1ccccn1` [CLIK-148] as the compound, how does the IC50 read?
Answer: < 100 nM
